From ChEMBL document CHEMBL1909046, “DrugMatrix in vitro pharmacology data”

Key:
[1] = DRUGMATRIX: beta-Lactamase enzyme inhibition (substrate: Nitrocefin); parameters: species or system Bacillus cereus; settings: Not Active = under 50% inhibition at 10 µM
Endothelin-1 receptor = biological target: T1, Endothelin-1 receptor (Homo sapiens, UniProt P25101); type: cell membranes, Membrane; settings: cho-k1; note: in other assays of this panel Not Active means under 50% inhibition at 10 µM
T1 sequence (P25101 whole entry): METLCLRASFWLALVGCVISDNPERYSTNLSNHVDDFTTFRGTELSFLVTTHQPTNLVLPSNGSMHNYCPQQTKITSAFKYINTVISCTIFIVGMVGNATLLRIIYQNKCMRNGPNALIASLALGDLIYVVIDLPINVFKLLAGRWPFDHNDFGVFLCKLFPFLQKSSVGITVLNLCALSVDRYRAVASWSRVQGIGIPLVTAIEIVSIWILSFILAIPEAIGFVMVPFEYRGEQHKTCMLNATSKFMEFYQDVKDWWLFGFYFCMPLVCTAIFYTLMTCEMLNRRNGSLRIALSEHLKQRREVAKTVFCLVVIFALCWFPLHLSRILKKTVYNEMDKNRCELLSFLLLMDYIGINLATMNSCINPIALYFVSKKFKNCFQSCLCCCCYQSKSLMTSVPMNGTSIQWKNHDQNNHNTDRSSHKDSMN

[2] = DRUGMATRIX: Platelet-Derived Growth Factor (PDGF) radioligand binding (ligand: [125I] PDGF); type: cell-based; settings: nih3t3; Not Active = under 50% inhibition at 10 µM
[3] = DRUGMATRIX: Calcium Channel Type L, Benzothiazepine radioligand binding (ligand: [3H] Diltiazem); type: cell membranes, Rattus norvegicus, Wistar, Brain, Membrane; settings: Not Active = under 50% inhibition at 10 µM
Carbonic anhydrase 2 = Carbonic anhydrase 2 (Homo sapiens, UniProt P00918); assay: DRUGMATRIX: Carbonic Anhydrase II enzyme inhibition (substrate: 4-Nitrophenyl acetate (4-NPA)); type: tissue-based, Erythrocyte; settings: erythrocyte; Not Active = under 50% inhibition at 10 µM
[4] = DRUGMATRIX: Tumor Necrosis Factor (TNF), Non-Selective radioligand binding (ligand: [125I] TNF-alpha); type: cell membranes, Membrane; settings: u-937; Not Active = under 50% inhibition at 10 µM
Insulin receptor = Insulin receptor (Rattus norvegicus, UniProt P15127); type: cell membranes, Wistar, Liver, Membrane; note: in other assays of this panel Not Active means under 50% inhibition at 10 µM
[5] = biological target: Vascular endothelial growth factor receptor 1 (Homo sapiens, UniProt P17948); type: cell-based; settings: huvec; note: in other assays of this panel Not Active means under 50% inhibition at 10 µM
Vascular endothelial growth factor receptor 1, sequence (P17948 whole entry): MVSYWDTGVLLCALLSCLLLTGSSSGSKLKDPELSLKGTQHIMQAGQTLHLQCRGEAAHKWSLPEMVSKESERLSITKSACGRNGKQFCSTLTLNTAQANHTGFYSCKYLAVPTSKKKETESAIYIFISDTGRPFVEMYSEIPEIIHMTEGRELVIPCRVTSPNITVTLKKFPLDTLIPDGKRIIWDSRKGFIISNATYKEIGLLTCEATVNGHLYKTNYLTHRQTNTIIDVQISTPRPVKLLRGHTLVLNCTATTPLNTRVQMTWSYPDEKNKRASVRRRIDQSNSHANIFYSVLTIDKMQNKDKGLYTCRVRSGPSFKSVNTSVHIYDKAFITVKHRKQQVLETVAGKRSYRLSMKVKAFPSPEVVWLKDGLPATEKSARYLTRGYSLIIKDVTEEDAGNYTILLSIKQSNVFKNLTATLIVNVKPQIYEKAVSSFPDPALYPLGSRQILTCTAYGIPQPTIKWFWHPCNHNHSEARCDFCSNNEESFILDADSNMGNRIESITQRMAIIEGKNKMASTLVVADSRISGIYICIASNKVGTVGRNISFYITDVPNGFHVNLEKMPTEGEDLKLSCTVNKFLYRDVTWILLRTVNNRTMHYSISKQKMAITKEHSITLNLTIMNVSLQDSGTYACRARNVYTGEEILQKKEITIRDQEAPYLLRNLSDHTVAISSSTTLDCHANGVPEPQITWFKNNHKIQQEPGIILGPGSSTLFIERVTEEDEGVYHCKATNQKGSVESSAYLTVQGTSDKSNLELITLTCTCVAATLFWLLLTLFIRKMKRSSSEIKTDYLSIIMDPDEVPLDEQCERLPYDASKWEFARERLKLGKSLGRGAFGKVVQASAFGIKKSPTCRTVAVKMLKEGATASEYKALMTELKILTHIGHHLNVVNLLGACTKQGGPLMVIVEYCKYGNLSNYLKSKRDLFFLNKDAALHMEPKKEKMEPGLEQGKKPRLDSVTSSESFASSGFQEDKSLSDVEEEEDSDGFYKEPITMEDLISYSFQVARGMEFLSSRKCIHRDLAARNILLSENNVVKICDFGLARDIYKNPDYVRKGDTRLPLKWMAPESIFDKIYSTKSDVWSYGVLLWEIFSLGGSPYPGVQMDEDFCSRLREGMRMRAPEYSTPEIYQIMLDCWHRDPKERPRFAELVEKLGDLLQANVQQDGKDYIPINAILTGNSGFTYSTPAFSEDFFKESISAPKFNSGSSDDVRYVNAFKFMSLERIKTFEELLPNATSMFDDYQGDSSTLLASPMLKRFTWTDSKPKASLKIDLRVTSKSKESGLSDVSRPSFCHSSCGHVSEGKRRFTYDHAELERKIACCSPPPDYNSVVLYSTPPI

Insulin receptor, sequence (P15127 27-759 limits assumed): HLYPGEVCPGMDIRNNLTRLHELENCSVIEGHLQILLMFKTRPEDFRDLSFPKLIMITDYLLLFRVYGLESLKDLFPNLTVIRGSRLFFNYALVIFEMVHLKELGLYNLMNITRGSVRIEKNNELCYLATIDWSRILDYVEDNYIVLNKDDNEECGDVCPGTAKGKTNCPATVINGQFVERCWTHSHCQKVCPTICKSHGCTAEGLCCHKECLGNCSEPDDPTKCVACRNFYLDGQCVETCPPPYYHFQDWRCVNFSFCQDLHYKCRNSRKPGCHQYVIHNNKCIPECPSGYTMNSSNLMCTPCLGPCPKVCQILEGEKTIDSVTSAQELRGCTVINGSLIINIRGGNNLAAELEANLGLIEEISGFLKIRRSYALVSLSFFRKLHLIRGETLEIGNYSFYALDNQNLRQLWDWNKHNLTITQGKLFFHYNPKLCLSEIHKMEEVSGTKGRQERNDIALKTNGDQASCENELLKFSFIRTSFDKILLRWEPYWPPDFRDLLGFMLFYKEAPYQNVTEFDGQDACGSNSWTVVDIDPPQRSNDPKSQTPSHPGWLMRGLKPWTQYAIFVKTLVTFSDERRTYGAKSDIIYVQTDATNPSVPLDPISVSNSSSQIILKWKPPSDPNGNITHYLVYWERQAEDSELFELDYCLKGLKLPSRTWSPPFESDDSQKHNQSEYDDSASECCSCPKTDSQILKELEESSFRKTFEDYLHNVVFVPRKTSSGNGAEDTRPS
Insulin receptor, sequence (P15127 764-1383 limits assumed): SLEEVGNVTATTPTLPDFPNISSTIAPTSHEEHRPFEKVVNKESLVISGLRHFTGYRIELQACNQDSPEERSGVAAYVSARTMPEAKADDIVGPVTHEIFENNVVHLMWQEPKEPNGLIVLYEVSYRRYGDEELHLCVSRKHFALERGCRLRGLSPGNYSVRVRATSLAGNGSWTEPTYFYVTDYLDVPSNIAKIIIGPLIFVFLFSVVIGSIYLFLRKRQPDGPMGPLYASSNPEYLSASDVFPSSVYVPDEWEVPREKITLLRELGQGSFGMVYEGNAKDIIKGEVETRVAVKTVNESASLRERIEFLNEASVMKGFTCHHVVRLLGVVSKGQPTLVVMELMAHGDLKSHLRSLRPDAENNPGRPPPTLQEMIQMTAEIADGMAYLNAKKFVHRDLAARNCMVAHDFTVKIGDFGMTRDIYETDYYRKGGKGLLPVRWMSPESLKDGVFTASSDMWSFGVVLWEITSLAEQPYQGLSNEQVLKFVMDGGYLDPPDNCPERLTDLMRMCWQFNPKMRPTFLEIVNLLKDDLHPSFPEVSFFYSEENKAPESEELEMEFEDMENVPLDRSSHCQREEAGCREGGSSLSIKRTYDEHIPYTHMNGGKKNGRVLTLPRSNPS

Structure (SMILES)	IC50 [1]	Ki [1]	IC50 (Endothelin-1 receptor)	IC50 [2]	Ki [2]	IC50 ([3]; read-out: IC50)	Ki ([3]; read-out: Ki)	IC50 (Carbonic anhydrase 2)	IC50 [4]	Ki [4]	IC50 (Insulin receptor)	IC50 [5]	IC50 [3]	Ki [3]
CC[C@H](C)[C@@H](CO[C@@H](Cc1ccccc1)C(=O)N[C@@H](CCS(C)(=O)=O)C(=O)OC(C)C)NC[C@@H](N)CS	Not Active	Not Active	Not Active	Not Active	Not Active	3.57 µM	3.17 µM	Not Active	Not Active	Not Active	Not Active	Not Active		
CC[C@H](C)C(=O)O[C@H]1CCC=C2C=C[C@H](C)[C@H](CC[C@@H]3C[C@@H](O)CC(=O)O3)[C@H]21 [MEVASTATIN]	Not Active	Not Active	Not Active	Not Active	Not Active			Not Active	Not Active	Not Active	Not Active	Not Active	Not Active	Not Active
C[C@]12CCC(=O)C[C@@H]1CC[C@@H]1[C@@H]2CC[C@]2(C)[C@@H](O)CC[C@@H]12 [STANOLONE]	Not Active	Not Active	Not Active	Not Active	Not Active			Not Active	Not Active	Not Active	Not Active	Not Active	Not Active	Not Active
CC(N)C12CC3CC(CC(C3)C1)C2 (configuration not stated) [RIMANTADINE]	Not Active	Not Active	Not Active	Not Active	Not Active			Not Active	Not Active	Not Active	Not Active	Not Active	Not Active	Not Active
Cc1cccc(C)c1NC(=O)C(C)N (configuration not stated) [TOCAINIDE]	Not Active	Not Active	Not Active	Not Active	Not Active			Not Active	Not Active	Not Active	Not Active	Not Active	Not Active	Not Active
CCN(CC)N=O [N-NITROSODIETHYLAMINE]	Not Active	Not Active	Not Active	Not Active	Not Active			Not Active	Not Active	Not Active	Not Active	Not Active	Not Active	Not Active
CCC(C)(C)C(=O)O[C@H]1C[C@@H](C)C=C2C=C[C@H](C)[C@H](CC[C@@H]3C[C@@H](O)CC(=O)O3)[C@H]21 [SIMVASTATIN]	Not Active	Not Active	Not Active	Not Active	Not Active			Not Active	Not Active	Not Active	Not Active	Not Active	Not Active	Not Active
CN1C[C@H](CNC(=O)OCc2ccccc2)C[C@@H]2c3cccc4c3c(cn4C)C[C@H]21 [METERGOLINE]	Not Active	Not Active	Not Active	Not Active	Not Active	0.268 µM	0.238 µM	Not Active	Not Active	Not Active	Not Active	Not Active		
CCN(CC)CCNC(=O)c1cc(Cl)c(N)cc1OC [METOCLOPRAMIDE]	Not Active	Not Active	Not Active	Not Active	Not Active			Not Active	Not Active	Not Active	Not Active	Not Active	Not Active	Not Active
Cc1ccc(Cl)c(Nc2ccccc2C(=O)O)c1Cl [MECLOFENAMIC ACID]	Not Active	Not Active	Not Active	Not Active	Not Active			Not Active	Not Active	Not Active	Not Active	Not Active	Not Active	Not Active
CO[C@@]12[C@H](COC(N)=O)C3=C(C(=O)C(C)=C(N)C3=O)N1C[C@@H]1N[C@@H]12 [MITOMYCIN]	Not Active	Not Active	Not Active	Not Active	Not Active			Not Active	Not Active	Not Active	Not Active	Not Active	Not Active	Not Active
Cc1[nH]c(=O)c(C#N)cc1-c1ccncc1 [MILRINONE]	Not Active	Not Active	Not Active	Not Active	Not Active			Not Active	Not Active	Not Active	Not Active	Not Active	Not Active	Not Active
O=[As][O-].[Na+] [SODIUM ARSENITE]	Not Active	Not Active	Not Active	Not Active	Not Active			Not Active	Not Active	Not Active	Not Active	Not Active	Not Active	Not Active
COC(=O)Nc1nc2ccc(C(=O)c3ccccc3)cc2[nH]1 [MEBENDAZOLE]	Not Active	Not Active	Not Active	Not Active	Not Active			Not Active	Not Active	Not Active	Not Active	Not Active	Not Active	Not Active
CCOC(=O)C1=C(C)NC(C)=C(C(=O)OCC)C1c1ccccc1/C=C/C(=O)OC(C)(C)C [LACIDIPINE]	Not Active	Not Active	Not Active	Not Active	Not Active	0.00545 µM	0.00484 µM	Not Active	Not Active	Not Active	Not Active	Not Active		
O=C(OC[C@H]1O[C@@H](OC(=O)c2cc(O)c(O)c(OC(=O)c3cc(O)c(O)c(O)c3)c2)[C@H](OC(=O)c2cc(O)c(O)c(OC(=O)c3cc(O)c(O)c(O)c3)c2)[C@@H](OC(=O)c2cc(O)c(O)c(OC(=O)c3cc(O)c(O)c(O)c3)c2)[C@@H]1OC(=O)c1cc(O)c(O)c(OC(=O)c2cc(O)c(O)c(O)c2)c1)c1cc(O)c(O)c(OC(=O)c2cc(O)c(O)c(O)c2)c1 [TANNIC ACID]	Not Active	Not Active	Not Active	Not Active	Not Active			Not Active	Not Active	Not Active	Not Active	Not Active	Not Active	Not Active
CC#C[C@]1(O)CC[C@H]2[C@@H]3CCC4=CC(=O)CCC4=C3[C@@H](c3ccc(N(C)C)cc3)C[C@@]21C [MIFEPRISTONE]	Not Active	Not Active	Not Active	Not Active	Not Active	29 µM	25.8 µM	Not Active	Not Active	Not Active	Not Active	Not Active		
CC(O)C(=O)O (configuration not stated) [LACTIC ACID]	Not Active	Not Active	Not Active	Not Active	Not Active			Not Active	Not Active	Not Active	Not Active	Not Active	Not Active	Not Active
CC(C)(C)NC[C@H](O)COc1cccc2c1CCCC2=O [LEVOBUNOLOL]	Not Active	Not Active	Not Active	Not Active	Not Active			Not Active	Not Active	Not Active	Not Active	Not Active	Not Active	Not Active
CCOc1cc(N)c(Cl)cc1C(=O)NCC1CN(Cc2ccc(F)cc2)CCO1 (configuration not stated) [MOSAPRIDE]	Not Active	Not Active	Not Active	Not Active	Not Active			Not Active	Not Active	Not Active	Not Active	Not Active	Not Active	Not Active
CC(=O)O[C@]1(C(C)=O)CC[C@H]2[C@@H]3C[C@H](C)C4=CC(=O)CC[C@]4(C)[C@H]3CC[C@@]21C [MEDROXYPROGESTERONE ACETATE]	Not Active	Not Active	Not Active	Not Active	Not Active			Not Active	Not Active	Not Active	Not Active	Not Active	Not Active	Not Active
